{"source": "patent US20140314857A1", "about": "“FORMULATIONS FOR ENHANCED BIOAVAILABILITY OF ZANAMIVIR” (priority 2012, published 2014)", "experiment": "Intraduodenal bioavailability of zanamivir from glycerol and PBS formulations, enhancer pre-dose (Example 6)", "settings": "for half-life: t1/2, ID 1.5 mg/animal", "source_text": "Male Sprague-Dawley rats (Hilltop Labs), 3 animals per treatment group, 250-350 grams in weight, were fitted with a jugular vein cannula (JVC). Animals intended for intraduodenal dosing were also fitted with one or more intraduodenal cannula (IDC) and those intended for intravenous dosing were fitted with a second JVC. Food was withheld from the animals for a minimum of twelve hours prior to test article administration and was returned approximately four hours post-dose. Water was supplied ad libitum.\nIntraduodenal doses composed of 1.5 mg of zanamivir and varying amounts of an enhancer (glycerol or Capmul MCM L8) were injected directly into the duodenum via the IDC. Intravenous dosing was conducted by the injection of 1.5 mg of zanamivir in 200 μL of PBS through a JVC. For some experiments, the absorption enhancer was administered intraduodenally 2 hr prior to administering 1.5 mg of zanamivir in PBS through a second IDC. Each intraduodenal dose was followed with the introduction of a small air bubble (˜10 μL) in the cannula followed by a flush of 125 μL of PBS to ensure the dose was given in full. The volume of PBS used for cannula flush was consistent across the treatment groups. The cannula was tied to prevent the PBS remaining in the cannula from entering the duodenum.\nBlood samples collected via the JVC, approximately 400 μL each, were obtained at 2 min, 5 min, 15 min, 30 min, 60 min, 90 min, and 120 min, with sodium heparin used as an anti-coagulant. Each sample was placed into a chilled tube containing the anticoagulant and kept on ice until centrifugation at 4° C., 3,000×g, for 5 min. The plasma supernatants were stored at −70° C. until LC-MS analysis.\nDosing solution samples were assayed by LC-MS/MS using electrospray ionization. The chromatographic system consisted of Perkin Elmer series 200 micropumps and autosampler equipped with a Waters Atlantic® HILIC Silica 3 μM, 2.1×50 mm column. The mass spectrometer was a PE Sciex API 4000 with electrospray interface in multiple reaction monitoring mode. […] Stock solutions (1 mg/mL zanamivir) were prepared in water. Standards (eight concentrations) were prepared in the appropriate matched matrix (HBSSg or Sprague-Dawley rat plasma containing sodium heparin) and diluted 50-fold with methanol. Experimental samples were treated identically.\nStandards and samples were prepared in Sprague Dawley rat plasma containing sodium heparin as an anticoagulant. An eight-point calibration curve was prepared at concentrations of 1000, 750, 500, 250, 100, 50, 25, and 10 ng/mL by serial dilution. Standard samples were treated identically to the study samples.\nPlasma samples were extracted by protein precipitation in methanol.\nIn this example, the bioavailability of Zanamivir was evaluated after intraduodenal doses in male Sprague-Dawley rats. The test compound was dosed at 1.5 mg/animal through intraduodenal routes from glycerol and PBS formulations. Plasma levels were determined by LC-MS/MS analysis. Pharmacokinetic parameters were estimated by a non-compartmental model using WinNonlin v5.2.1 software.", "note": "Values joined by “and” are separate entries in the source; they are usually repeats but may differ in a detail not shown here. Equal entries are not always repeated.", "data": [{"molecule": "CC(=O)NC1C(NC(=N)N)C=C(C(=O)O)OC1C(O)C(O)CO", "note": "(centres unmarked) [Zanamivir, 5-acetamido-4-guanidino-6-(1,2,3-trihydroxypropyl)-5,6-dihydro-4H-pyran-2-carboxylic acid]", "values": [{"measurement": "Plasma concentration", "setting": "ID 1.5 mg/animal, 50 µL PBS, 50 µL blank Capmul MCM L8 -2 hr, 0.25 hr, individual rats", "result": "27.1 ng/mL and 28.1 ng/mL"}, {"measurement": "Plasma concentration", "setting": "ID 1.5 mg/animal, 50 µL PBS, 50 µL blank Capmul MCM L8 -2 hr, 0.5 hr, individual rats", "result": "34.5 ng/mL and 42.9 ng/mL"}, {"measurement": "Plasma concentration", "setting": "ID 1.5 mg/animal, 50 µL PBS, 50 µL blank Capmul MCM L8 -2 hr, 0.83 hr, individual rats", "result": "18.1 ng/mL and 8.00 ng/mL and 6.27 ng/mL"}, {"measurement": "Plasma concentration", "setting": "ID 1.5 mg/animal, 50 µL PBS, 50 µL blank Capmul MCM L8 -2 hr, 1.0 hr, individual rats", "result": "33.1 ng/mL and 32.1 ng/mL"}, {"measurement": "Plasma concentration", "setting": "ID 1.5 mg/animal, 50 µL PBS, 50 µL blank Capmul MCM L8 -2 hr, 1.5 hr, individual rats", "result": "61.5 ng/mL and 23.2 ng/mL and 31.4 ng/mL"}, {"measurement": "Plasma concentration", "setting": "ID 1.5 mg/animal, 50 µL PBS, 50 µL blank Capmul MCM L8 -2 hr, 2.0 hr, individual rats", "result": "68.3 ng/mL and 14.8 ng/mL and 18.2 ng/mL"}, {"measurement": "Tmax", "setting": "ID 1.5 mg/animal, 50 µL PBS, 50 µL blank Capmul MCM L8 -2 hr, individual rats", "result": 2.00, "unit": "h"}, {"measurement": "Plasma concentration", "setting": "ID 1.5 mg/animal, 50 µL PBS, 150 µL blank glycerol -2 hr, 0.25 hr, individual rats", "result": "65.2 ng/mL and 28.9 ng/mL and 61.2 ng/mL"}, {"measurement": "Plasma concentration", "setting": "ID 1.5 mg/animal, 50 µL PBS, 150 µL blank glycerol -2 hr, 0.5 hr, individual rats", "result": "40.1 ng/mL and 72.3 ng/mL"}, {"measurement": "Plasma concentration", "setting": "ID 1.5 mg/animal, 50 µL PBS, 150 µL blank glycerol -2 hr, 0.83 hr, individual rats", "result": "22.7 ng/mL and 1.47 ng/mL and 48.9 ng/mL"}, {"measurement": "Plasma concentration", "setting": "ID 1.5 mg/animal, 50 µL PBS, 150 µL blank glycerol -2 hr, 1.0 hr, individual rats", "result": "39.8 ng/mL and 38.4 ng/mL"}, {"measurement": "Plasma concentration", "setting": "ID 1.5 mg/animal, 50 µL PBS, 150 µL blank glycerol -2 hr, 1.5 hr, individual rats", "result": "45.8 ng/mL and 34.5 ng/mL"}, {"measurement": "Plasma concentration", "setting": "ID 1.5 mg/animal, 50 µL PBS, 150 µL blank glycerol -2 hr, 2.0 hr, individual rats, BLOQ = below 10 ng/mL", "result": 54.8, "unit": "ng/mL"}, {"measurement": "Tmax", "setting": "ID 1.5 mg/animal, 50 µL PBS, 150 µL blank glycerol -2 hr, individual rats", "result": 1.50, "unit": "h"}, {"measurement": "Plasma concentration", "setting": "ID 1.5 mg/animal, 100 µL Glycerol, 0.25 hr, individual rats", "result": "76.4 ng/mL and 40.7 ng/mL"}, {"measurement": "Plasma concentration", "setting": "ID 1.5 mg/animal, 100 µL Glycerol, 0.5 hr, individual rats", "result": "59.2 ng/mL and 35.6 ng/mL"}, {"measurement": "Plasma concentration", "setting": "ID 1.5 mg/animal, 100 µL Glycerol, 0.83 hr, individual rats", "result": "55.4 ng/mL and 78.4 ng/mL and 37.5 ng/mL"}, {"measurement": "Plasma concentration", "setting": "ID 1.5 mg/animal, 100 µL Glycerol, 1.0 hr, individual rats", "result": "55.3 ng/mL and 39.4 ng/mL"}, {"measurement": "Plasma concentration", "setting": "ID 1.5 mg/animal, 100 µL Glycerol, 1.5 hr, individual rats", "result": "29.6 ng/mL and 47.6 ng/mL and 63.5 ng/mL"}, {"measurement": "Plasma concentration", "setting": "ID 1.5 mg/animal, 100 µL Glycerol, 2.0 hr, individual rats", "result": "30.8 ng/mL and 37.4 ng/mL and 94.5 ng/mL"}, {"measurement": "Tmax", "setting": "ID 1.5 mg/animal, 100 µL Glycerol, individual rats", "result": 2.00, "unit": "h"}, {"measurement": "t1/2", "setting": "ID 1.5 mg/animal, 100 µL Glycerol, mean (n = 1)", "result": 1.77, "unit": "h"}, {"measurement": "Plasma concentration", "setting": "ID 1.5 mg/animal, 150 µL Glycerol, 0.25 hr, individual rats", "result": "57.9 ng/mL and 96.3 ng/mL"}, {"measurement": "Plasma concentration", "setting": "ID 1.5 mg/animal, 150 µL Glycerol, 0.5 hr, individual rats", "result": "919 ng/mL and 57.8 ng/mL and 55.9 ng/mL"}, {"measurement": "Plasma concentration", "setting": "ID 1.5 mg/animal, 150 µL Glycerol, 0.83 hr, individual rats", "result": "72.7 ng/mL and 108 ng/mL"}, {"measurement": "Plasma concentration", "setting": "ID 1.5 mg/animal, 150 µL Glycerol, 1.0 hr, individual rats", "result": "60.6 ng/mL and 36.6 ng/mL"}, {"measurement": "Plasma concentration", "setting": "ID 1.5 mg/animal, 150 µL Glycerol, 1.5 hr, individual rats", "result": "46.8 ng/mL and 46.9 ng/mL and 16.0 ng/mL"}, {"measurement": "Plasma concentration", "setting": "ID 1.5 mg/animal, 150 µL Glycerol, 2.0 hr, individual rats", "result": "37.7 ng/mL and 33.4 ng/mL and 16.7 ng/mL"}, {"measurement": "tmax (second line so headed, Table 10)", "setting": "ID 1.5 mg/animal, 150 µL Glycerol, individual rats", "result": 1.16, "unit": "h"}, {"measurement": "half-life", "setting": "male, Sprague-Dawley, rat, in vivo, 1.5 mg, 50 µL PBS, 50 µL blank Capmul MCM L8 -2 hr, individual rats", "result": 0.86, "unit": "h"}, {"measurement": "half-life", "setting": "male, Sprague-Dawley, rat, in vivo, 1.5 mg, 50 µL PBS, 50 µL blank Capmul MCM L8 -2 hr, mean (n = 1)", "result": 0.86, "unit": "h"}, {"measurement": "half-life", "setting": "male, Sprague-Dawley, rat, in vivo, 1.5 mg, 100 µL Glycerol, individual rats", "result": 1.77, "unit": "h"}, {"measurement": "half-life", "setting": "male, Sprague-Dawley, rat, in vivo, 1.5 mg, 100 µL Glycerol, mean (n = 1)", "result": 1.77, "unit": "h"}, {"measurement": "half-life", "setting": "male, Sprague-Dawley, rat, in vivo, 1.5 mg, 150 µL Glycerol, mean (n = 2)", "result": 1.63, "unit": "h"}, {"measurement": "Tmax", "setting": "male, Sprague-Dawley, rat, in vivo, 1.5 mg, tmax (second line so headed, Table 10), ID 1.5 mg/animal, 150 µL Glycerol, individual rats", "result": 2.09, "unit": "h"}, {"measurement": "Tmax", "setting": "male, Sprague-Dawley, rat, in vivo, 1.5 mg, tmax (second line so headed, Table 10), ID 1.5 mg/animal, 150 µL Glycerol, mean", "result": 1.63, "unit": "h"}, {"measurement": "Tmax", "setting": "male, Sprague-Dawley, rat, in vivo, 1.5 mg, tmax, ID 1.5 mg/animal, 50 µL PBS, 50 µL blank Capmul MCM L8 -2 hr, mean", "result": 1, "unit": "h"}, {"measurement": "Tmax", "setting": "male, Sprague-Dawley, rat, in vivo, 1.5 mg, tmax, ID 1.5 mg/animal, 50 µL PBS, 150 µL blank glycerol -2 hr, mean", "result": 0.75, "unit": "h"}]}]}
